Measurements published in patent US6620850B2, “Materials and methods for treatment of neurological disorders involving overactivation of glutamatergic ionotropic receptors” (University of Florida, priority 2001, dated 2003).

What was measured:
[1] = system: GluR-mediated miniature excitatory postsynaptic currents (mEPSCs) in hippocampal neurons; experiment: mEPSCs in cultured rat hippocampal neurons, whole-cell patch clamp (normoxia); type: cell-based; conditions: for effect on GluR-mediated mEPSCs: cultured hippocampal neurons, normoxia, in presence of MK-801
[2] = versus 55-60 μM in healthy patients; cited from earlier work
Parkinson's disease = conditions: oral administration, patients; cited from earlier work
cocaine dependence = conditions: orally administered, patients; cited from earlier work

## N[C@@H](Cc1ccccc1)C(=O)O [L-Phe, L-phenylalanine]
[1]; L-Phe 0.1-3 mM, normalized to control, 5 to 8 cells, P<0.01 compared to control
  effect on frequency of mEPSCs (concentration-dependence): concentration-dependence of attenuation of the frequency of mEPSCs
[1]
  effect on GluR-mediated mEPSCs: significantly and reversibly attenuate
[2]
  blood concentration of L-Phe causing phenylketonuria (PKU): > 1200 µM

## N[C@@H](Cc1ccc(O)cc1)C(=O)O [L-Tyr, L-tyrosine]
[1]
  effect on GluR-mediated mEPSCs: significantly and reversibly attenuate

## N[C@H](Cc1ccccc1)C(=O)O [D-phenylalanine]
Parkinson's disease
  clinical benefit in Parkinson's disease: conferred some benefit

## N[C@@H](Cc1c[nH]c2ccccc12)C(=O)O [L-Trp, L-Tryptophan]
[1]
  effect on GluR-mediated mEPSCs: significantly and reversibly attenuate

## N[C@@H](Cc1ccc(O)cc1)C(=O)O [tyrosine]
Cocaine dependence
  clinical benefit in cocaine dependence: did not confer a benefit
